TGI and GI50 data for 16 molecules are collected here from PubChem BioAssay (NCI).

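Compound exposure: 48 hours, 5 concentrations, 96-well plates. At the GI50, growth is halved. TGI: concentration producing complete growth inhibition.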

Test in all cases: NCI tumour cell line growth inhibition, 48 h
For assay [1], the system named is A549 NSCLC.
Assay [2] concerns COLO 205 colon.
In assay [3] the test system is SK-MEL-5 melanoma.
The test system of assay [4] is SF-539 CNS.
Assay [5] has as its system A498 renal.
Assay [6] deals with SN12C renal.
In assay [7] the test system is HOP-92 NSCLC.
Assay [8] has as its system HCT-15 colon.
Assay [9] has as its system NCI/ADR-RES ovarian.
Assay [10] concerns DU-145 prostate.

Regarding `C#CCNC(=O)NCCCCC(NC(=O)OCc1ccccc1)C(=O)OCc1ccccc1` (configuration not stated), the TGI in assay [1] was more than 100 µM; in assay [2] it was 32.8 µM; in assay [3] it was more than 100 µM; in assay [4], more than 100 µM; in [5], more than 100 µM; in assay [6], more than 100 µM. Further, the TGI in [7] and in [8] was more than 100 µM in each case.

With `O=c1cccccc1NCCCCCCCNc1cccccc1=O`, the TGI is more than 100 µM in assay [1]; more than 100 µM in assay [2]; more than 100 µM in assay [4]; more than 100 µM in assay [6]; 97.8 µM in [7]; more than 100 µM in assay [8].

Turning to `COC(=O)C1C(=O)CC2CCCCC21` (configuration not stated), the TGI in assay [1], in assay [2], in [3], in assay [4], in [5] and in assay [6] was more than 100 µM throughout. Also, in assay [8], the TGI is more than 100 µM.

Regarding `Cl/C(N=Nc1ccccc1)=N/Nc1ccccc1`, the TGI in [1], in assay [2], in assay [4], in assay [5], in assay [6] and in assay [7] was more than 100 µM each time.

Consider `CCc1cccc(C)c1N1C(=O)C(=O)C(c2nc3ccccc3o2)C(=O)C1=O`, for which the TGI in assay [1], in assay [2], in assay [3], in assay [4], in assay [5] and in assay [6] was more than 100 µM throughout. Further, the TGI in assay [7] and in [8] was more than 100 µM each time.

Consider `O=c1nc(-c2ccccc2)cc(CC(O)c2ccc(Cl)c(Cl)c2)[nH]1` (configuration not stated), for which the TGI in assay [1] is more than 100 µM; in assay [2] it was 31.7 µM; in [3], more than 100 µM; in assay [4], more than 100 µM; in [5], 77.2 µM; in assay [6] it was more than 100 µM. Further, the TGI in assay [7] and in [8] was more than 100 µM in each case.

`COc1ccc(OC(C(=O)O)C(C)C)c2c1CCCC2=O` (configuration not stated): the TGI in [1], in assay [2], in assay [3], in [4], in assay [5] and in [6] was more than 100 µM each time. This molecule yielded a TGI in [8] of more than 100 µM.

In the case of `C#CCNC(=O)ON1C(=O)CCC1=O`, the TGI in assay [1], in [2], in assay [4], in [5], in assay [6] and in assay [8] was more than 100 µM throughout.

With `C[Si](C)(C)C(CCCCSc1ccccc1)(Sc1ccccc1)Sc1ccccc1`, the TGI in [1], in [2], in [3], in [4], in assay [5] and in assay [6] was more than 100 µM in each case. Further, the TGI in assay [7] and in [8] was more than 100 µM throughout.

Take `CCN1CCN(c2cc(C)nc(N(CCCNc3ccnc4cc(Cl)ccc34)Cc3ccc4c(c3)OCO4)n2)CC1`: the GI50 in assay [1] is 3.67 µM; in [9] it was 3.22 µM; in assay [2], 1.72 µM; in assay [3] it was 1.7 µM; in assay [4] it was 1.73 µM; in assay [5], 3.66 µM. Besides, the GI50 is 4.13 µM in assay [6], 1.61 µM in assay [7] and 2.24 µM in [8]. The TGI in assay [1] was more than 100 µM; in [9] it was 58.5 µM; in assay [2], 3.39 µM; in assay [3], 3.13 µM; in assay [4], 3.21 µM; in assay [5] it was 20.8 µM. For the same molecule, the values for the TGI in assay [6], in assay [7] and in assay [8] were more than 100 µM, 4.67 µM and 8.42 µM, respectively.

Turning to `Cc1ccc(S(=O)(=O)N=NC=C2c3ccccc3N(O)c3ccccc32)cc1`, the TGI in assay [1] was 20 µM; in assay [2] it was 7.99 µM; in assay [3], 18.8 µM; in assay [5], 13.9 µM; in assay [6] it was 16.6 µM; in assay [7], 19.5 µM. This molecule registered a TGI in assay [8] of 3.63 µM.

As to `CCOC(=O)CN(Cn1cncn1)Cn1cncn1`, the TGI in assay [1] is more than 100 µM; in [2], more than 100 µM; in assay [3], 53.7 µM; in assay [6], 85.3 µM; in assay [7], more than 100 µM; in assay [8], 47.2 µM.

Take `O=C(C#Cc1ccccc1)N1c2ccccc2CC1c1c[nH]c2ccccc12` (configuration not stated): the TGI was determined as 49.1 µM in [1]; 31.6 µM in assay [2]; 30 µM in assay [3]; 31.1 µM in assay [4]; 73 µM in [5]; 26.9 µM in [6]. In addition, the figures for the TGI in assay [7] and in [8] were 32.5 µM and 24.9 µM, respectively.

On to `N/C(=N\NS(=O)(=O)c1ccccc1)Oc1ccc(Br)cc1Br`, for which the TGI in [1], in assay [2], in [3], in assay [4], in assay [5] and in [6] was more than 100 µM each time. Also, the TGI in assay [7] and in assay [8] was more than 100 µM in each case.

As for `CCc1ccccc1NC(=O)/C=C/c1ccccc1`, the TGI in assay [1], in [10], in [2], in [3], in [4] and in assay [5] was more than 100 µM throughout. The TGI in [6] and in [8] was more than 100 µM throughout.

`CC1(c2cc3c(cc2Br)OCO3)SCCCS1`: the TGI in assay [1] is more than 100 µM; in [2], more than 100 µM; in assay [3], 51 µM; in assay [4], more than 100 µM; in assay [5] it was more than 100 µM; in [6] it was more than 100 µM. Further, the TGI in assay [7] was 51.7 µM; in assay [8], more than 100 µM.
